Experimental data: PubChem BioAssay (NCI)
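Each compound was tested at five concentrations against cells in 96-well plates for 48 hours. Here, GI50 denotes the concentration required for 50% inhibition of growth. TGI denotes the concentration required for complete inhibition of growth.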

Legend:
Experiment in all cases: inhibition of tumour cell growth, NCI panel, 48 h
HCT-15 colon = test system: HCT-15 colon
T-47D breast = test system: T-47D breast
SK-MEL-28 melanoma = test system: SK-MEL-28 melanoma
U251 CNS = test system: U251 CNS
TK-10 renal = test system: TK-10 renal
SK-MEL-5 melanoma = test system: SK-MEL-5 melanoma
EKVX NSCLC = test system: EKVX NSCLC
NCI-H522 lung = test system: NCI-H522 lung
HCC-2998 colon = test system: HCC-2998 colon
RPMI-8226 leukemia = test system: RPMI-8226 leukemia

SMILES | GI50 (HCT-15 colon) [µM] | TGI (HCT-15 colon) [µM] | GI50 (T-47D breast) [µM] | TGI (T-47D breast) [µM] | GI50 (SK-MEL-28 melanoma) [µM] | TGI (SK-MEL-28 melanoma) [µM] | GI50 (U251 CNS) [µM] | TGI (U251 CNS) [µM] | GI50 (TK-10 renal) [µM] | TGI (TK-10 renal) [µM] | GI50 (SK-MEL-5 melanoma) [µM] | TGI (SK-MEL-5 melanoma) [µM] | TGI (EKVX NSCLC) [µM] | TGI (NCI-H522 lung) [µM] | TGI (HCC-2998 colon) [µM] | TGI (RPMI-8226 leukemia) [µM] | GI50 (EKVX NSCLC) [µM] | GI50 (NCI-H522 lung) [µM] | GI50 (HCC-2998 colon) [µM] | GI50 (RPMI-8226 leukemia) [µM]
Cc1ccc(/C=C2\CCOC2=O)cc1 | > 100 | > 100 | > 100 | > 100 | > 100 | > 100 | > 100 | > 100 | > 100 | > 100 | > 100 | > 100 | – | – | – | – | – | – | – | –
Cc1ccccc1NC(=O)c1[nH]c(=S)nc(N)c1-c1ccccc1C | – | > 100 | – | – | – | > 100 | – | > 100 | – | > 100 | – | > 100 | > 100 | > 100 | > 100 | > 100 | – | – | – | –
Cc1cc(Cl)ccc1N1C(=O)C(=O)C(c2nc3ccccc3s2)C(=O)C1=O | – | > 100 | – | – | – | > 100 | – | > 100 | – | > 100 | – | > 100 | > 100 | > 100 | – | > 100 | – | – | – | –
Cc1ccc(S(=O)(=O)N2CCCCC2CCO)cc1 (stereo unspecified) | – | > 100 | – | – | – | – | – | > 100 | – | > 100 | – | > 100 | > 100 | > 100 | > 100 | > 100 | – | – | – | –
CCN(CCCl)CCNc1c2ccccc2nc2ccc(OC)cc12 | – | 3.39 | – | – | – | 3.67 | – | 4.78 | – | 5.82 | – | 2.6 | 3.49 | 1.71 | 2.15 | 1.37 | – | – | – | –
O=C(OCCOCCOC(=O)c1c[nH]cc1-c1ccccc1)c1c[nH]cc1-c1ccccc1 | – | 38.5 | – | – | – | – | – | 36.7 | – | 80.1 | – | 30.5 | 69.9 | 29.6 | 42.4 | 56.9 | – | – | – | –
CCCCCCCCSC1=CC(=O)C(OC)=C(OC)C1=O | 2.27 | 8.58 | – | – | 6.7 | 20.3 | 2.8 | 11.7 | 2.06 | 3.95 | 1.6 | 8.79 | 24.8 | 1.49 | 24.4 | > 100 | 10.1 | 0.326 | 11.3 | 1.27
CC(=O)O[C@H]1CC[C@@]2(C)C(=CC[C@@H]3C2CC[C@]2(C)Nc4oncc4CC32)C1 (stereo partly specified) | – | > 100 | – | – | – | > 100 | – | > 100 | – | > 100 | – | 33.2 | > 100 | – | > 100 | 43.8 | – | – | – | –
CC(=O)Nc1ccc(C(=O)N[C@@H]2C(=O)N3[C@@H]2SC(C)(C)[C@@H]3C(=O)O)cn1 | – | > 100 | – | > 100 | – | > 100 | – | > 100 | – | > 100 | – | > 100 | > 100 | – | > 100 | > 100 | – | – | – | –
NCCOc1ccccn1 | – | > 100 | – | > 100 | – | > 100 | – | > 100 | – | > 100 | – | > 100 | > 100 | > 100 | – | > 100 | – | – | – | –
CN(C)/[N+]([O-])=N/Oc1cc(Nc2ccc(C(=O)O)cc2)c([N+](=O)[O-])cc1[N+](=O)[O-] | 19.6 | 36.4 | – | – | 30.7 | 57.5 | 19.3 | 33.5 | 18.9 | 72.7 | 20.2 | 41.3 | 46.8 | > 100 | – | > 100 | 20.1 | 28.5 | – | 23.6
N#C/C(=C/N1CCN(C(=O)c2ccco2)C1=S)C(N)=O | 3.82 | > 100 | 9.32 | > 100 | 15.8 | > 100 | 11.5 | 46.8 | 12.1 | 53.6 | 16.5 | 38.9 | 0.982 | 44.2 | – | > 100 | 0.342 | 18.7 | – | 12.4
NS(=O)(=O)c1ccc(-n2nc(-c3ccc(Cl)cc3)cc2C2=CC(=O)C=CC2=O)cc1 | 16.1 | 32.2 | – | – | – | – | – | – | 12.5 | 28.3 | 18.2 | 43.5 | 91.1 | 87.2 | 33 | 33.4 | 28.4 | 31 | 18.3 | 6.86
COC(=O)C1Cc2c([nH]c3ccccc23)C=N1 (stereo unspecified) | – | > 100 | – | – | – | > 100 | – | > 100 | – | > 100 | – | > 100 | > 100 | > 100 | > 100 | > 100 | – | – | – | –
Cc1c2c(nn1-c1ccc(S/N=C3\SCC(=O)CN3c3ccccc3)cc1)-c1ccccc1CC2 | 21.2 | > 50 | 24.7 | > 50 | 28.5 | > 50 | 21.1 | > 50 | > 50 | > 50 | 8.11 | 22.3 | > 50 | > 50 | – | > 50 | > 50 | 15.4 | – | 7.85
CCOC1NC(=O)Oc2ccccc21 (stereo unspecified) | – | > 100 | – | – | – | > 100 | – | > 100 | – | > 100 | – | > 100 | > 100 | > 100 | > 100 | – | – | – | – | –
Cc1cccc(C)c1NC(=O)C(=O)C1C(=O)N(c2ccccc2)N=C1N (stereo unspecified) | – | > 100 | – | – | – | > 100 | – | > 100 | – | > 100 | – | > 100 | > 100 | > 100 | > 100 | > 100 | – | – | – | –
C/C=C/C1(NS(=O)(=O)c2ccc(C)cc2)CCC(C(C)(C)C)CC1 (stereo unspecified) | – | 93.7 | – | – | – | – | – | 29.5 | – | 94.6 | – | 31.8 | 64.5 | 26 | 36.1 | 47.1 | – | – | – | –
CC(CN(CP(=O)([O-])[O-])CP(=O)([O-])[O-])N(CP(=O)([O-])[O-])CP(=O)([O-])[O-].N[C@@H]1CCCC[C@@H]1N.[Pt+2] (stereo unspecified) | > 100 | > 100 | – | – | > 100 | > 100 | > 100 | > 100 | > 100 | > 100 | > 100 | > 100 | > 100 | > 100 | > 100 | > 100 | > 100 | > 100 | > 100 | > 100
